Measurements as given in patent publication US20240239781A1, “1H-PYRAZOLE DERIVATIVES AS SIGMA LIGANDS” (ACONDICIONAMIENTO TARRASENSE, priority 2021, published 2024).
pKi: −log10 of the molar value.

Key:
human σ1 receptor = target: T1, human σ1 receptor (Homo sapiens, UniProt Q99720); test: Human σ1 receptor radioligand assay ([3H](+)-pentazocine, transfected HEK-293 membranes); details: class scale, read-out: Binding σ-1 Ki
T1 construct: expressed in transfected cells; host or cells: HEK-293
In short: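 Membranes (7 μg) from transfected HEK-293 cells were incubated with 5 nM [3H](+)-pentazocine in 50 mM Tris-HCl, pH 8, for 120 minutes at 37° C, with 10 μM haloperidol defining non-specific binding. Bound radioactivity was filtered and counted by scintillation. Results are % inhibition at 1 or 10 μM or Ki from five concentrations.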

human σ2/TMEM97 receptor = target: T2, human σ2/TMEM97 receptor (Homo sapiens, UniProt Q5BJF2); test: Binding assay to human σ2/TMEM97 receptor ([3H]-DTG, transfected HEK-293 membranes); details: class scale, read-out: Binding σ-2 Ki
T2 construct: expressed in transfected cells; host or cells: HEK-293
In short: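 Membranes (15 μg) from transfected HEK-293 incubated 120 min at 25 °C with 10 nM [3H]-DTG in 50 mM Tris-HCl pH 8.0; nonspecific binding with 10 μM haloperidol. Filtration and scintillation counting; % inhibition at 1 or 10 μM, or Ki from five concentrations.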

T2 sequence (Q5BJF2 whole entry): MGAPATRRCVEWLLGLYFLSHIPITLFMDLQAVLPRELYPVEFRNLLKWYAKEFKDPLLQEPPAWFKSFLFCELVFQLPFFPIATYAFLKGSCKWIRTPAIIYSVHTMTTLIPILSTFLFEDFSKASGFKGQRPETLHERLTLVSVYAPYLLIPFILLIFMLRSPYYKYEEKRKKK
T1 sequence (Q99720 whole entry): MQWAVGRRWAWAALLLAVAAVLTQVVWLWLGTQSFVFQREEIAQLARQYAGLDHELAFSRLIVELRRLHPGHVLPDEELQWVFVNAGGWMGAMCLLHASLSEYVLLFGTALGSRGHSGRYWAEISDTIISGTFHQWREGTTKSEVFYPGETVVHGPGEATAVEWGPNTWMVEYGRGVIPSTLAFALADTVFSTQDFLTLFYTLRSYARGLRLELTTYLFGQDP

Compound	pKi (human σ1 receptor)	pKi (human σ2/TMEM97 receptor)
CCn1nc(-c2ccon2)c(C(=O)N2CCCC3(CN(CCC(C)(C)C)C3)C2)c1Cl [Example 195, (5-Chloro-1-ethyl-3-(isoxazol-3-yl)-1H-pyrazol-4-yl)(2-(3,3-dimethylbutyl)-2,6-diazaspiro[3.5]nonan-6-yl)methanone]	6.00 to 6.30	> 7.00
CCn1cc(-c2nn(C)c(Cl)c2C(=O)N2CCC3(CCN(CCC(C)(C)C)CC3)CC2)cn1 [Example 196, (5-Chloro-1′-ethyl-1-methyl-1H,1′H-[3,4′-bipyrazol]-4-yl)(9-(3,3-dimethylbutyl)-3,9-diazaspiro[5.5]undecan-3-yl)methanone]	6.00 to 6.30	> 7.00
CCn1nc(-c2ccon2)c(C(=O)NC2CCC3(CC2)CN(CCC(C)(C)C)C3)c1Cl [Example 197, 5-Chloro-N-(2-(3,3-dimethylbutyl)-2-azaspiro[3.5]nonan-7-yl)-1-ethyl-3-(isoxazol-3-yl)-1H-pyrazole-4-carboxamide]	6.30 to 7.00	> 7.00
CCn1nc(-c2cnn(C(C)C)c2)c(C(=O)N2CCC3(CCN(CCC(C)(C)C)CC3)CC2)c1Cl [Example 198, (5-Chloro-1-ethyl-1′-isopropyl-1H,1′H-[3,4′-bipyrazol]-4-yl)(9-(3,3-dimethylbutyl)-3,9-diazaspiro[5.5]undecan-3-yl)methanone]	6.00 to 6.30	> 7.00
CCn1nc(-c2cccc(C(F)(F)F)n2)c(C(=O)N2CCC3(CCN(CCC(C)(C)C)CC3)CC2)c1Cl [Example 199, (5-Chloro-1-ethyl-3-(6-(trifluoromethyl)pyridin-2-yl)-1H-pyrazol-4-yl)(9-(3,3-dimethylbutyl)-3,9-diazaspiro[5.5]undecan-3-yl)methanone]	6.30 to 7.00	> 7.00
CCn1nc(-c2cc(C)on2)c(C(=O)Nc2ccc3c(c2)CCN(CCC(C)(C)C)C3)c1Cl [Example 204, 5-Chloro-N-(2-(3,3-dimethylbutyl)-1,2,3,4-tetrahydroisoquinolin-6-yl)-1-ethyl-3-(5-methylisoxazol-3-yl)-1H-pyrazole-4-carboxamide]	> 7.00	> 7.00
CCn1nc(-c2ccnc(C)c2)c(C(=O)N2CCC3(CCN(CCC(C)(C)C)CC3)CC2)c1Cl [Example 207, (5-Chloro-1-ethyl-3-(2-methylpyridin-4-yl)-1H-pyrazol-4-yl)(9-(3,3-dimethylbutyl)-3,9-diazaspiro[5.5]undecan-3-yl)methanone]	6.30 to 7.00	> 7.00
Cc1cc(-c2nn(C)c(Cl)c2CC(=O)N2CCC3(CCN(CCC(C)(C)C)CC3)CC2)no1 [Example 208, 2-(5-Chloro-1-methyl-3-(5-methylisoxazol-3-yl)-1H-pyrazol-4-yl)-1-(9-(3,3-dimethylbutyl)-3,9-diazaspiro[5.5]undecan-3-yl)ethan-1-one]	6.00 to 6.30	> 7.00
CCn1nc(-c2ccon2)c(CC(=O)N2CCC3(CCN(CCC(C)(C)C)CC3)CC2)c1Cl [Example 209, 2-(5-Chloro-1-ethyl-3-(isoxazol-3-yl)-1H-pyrazol-4-yl)-1-(9-(3,3-dimethylbutyl)-3,9-diazaspiro[5.5]undecan-3-yl)ethan-1-one]	> 7.00	> 7.00
CCn1nc(-c2cc(C)on2)c(CC(=O)N2CCC3(CCN(CCC(C)(C)C)CC3)CC2)c1Cl [Example 210, 2-(5-Chloro-1-ethyl-3-(5-methylisoxazol-3-yl)-1H-pyrazol-4-yl)-1-(9-(3,3-dimethylbutyl)-3,9-diazaspiro[5.5]undecan-3-yl)ethan-1-one]	6.00 to 6.30	> 7.00
CCn1nc(-c2ccon2)c(CC(=O)Nc2ccc3c(c2)CCN(CCC(C)(C)C)C3)c1Cl [Example 211, 2-(5-Chloro-1-ethyl-3-(isoxazol-3-yl)-1H-pyrazol-4-yl)-N-(2-(3,3-dimethylbutyl)-1,2,3,4-tetrahydroisoquinolin-6-yl)acetamide]	> 7.00	> 7.00
CCn1nc(-c2ccon2)c(CC(=O)NCC2CCCN(CCC(C)(C)C)C2)c1Cl (stereo not drawn) [Example 212, 2-(5-Chloro-1-ethyl-3-(isoxazol-3-yl)-1H-pyrazol-4-yl)-N-((1-(3,3-dimethylbutyl)piperidin-3-yl)methyl)acetamide]	> 7.00	6.30 to 7.00
Cn1nc(-c2cccc(C(F)(F)F)n2)c(CC(=O)N2CCC3(CCN(CCC(C)(C)C)CC3)CC2)c1Cl [Example 213, 2-(5-Chloro-1-methyl-3-(6-(trifluoromethyl)pyridin-2-yl)-1H-pyrazol-4-yl)-1-(9-(3,3-dimethylbutyl)-3,9-diazaspiro[5.5]undecan-3-yl)ethan-1-one]	6.30 to 7.00	> 7.00
Cc1cc(-c2nn(C)c(Cl)c2CC(=O)N2CCCC3(CCN(CCC(C)(C)C)CC3)C2)no1 [Example 214, 2-(5-Chloro-1-methyl-3-(5-methylisoxazol-3-yl)-1H-pyrazol-4-yl)-1-(9-(3,3-dimethylbutyl)-2,9-diazaspiro[5.5]undecan-2-yl)ethan-1-one]	6.30 to 7.00	> 7.00
Cc1cc(-c2nn(C)c(Cl)c2CC(=O)NC2CCC3(CC2)CCN(CCC(C)(C)C)CC3)no1 [Example 215, 2-(5-Chloro-1-methyl-3-(5-methylisoxazol-3-yl)-1H-pyrazol-4-yl)-N-(3-(3,3-dimethylbutyl)-3-azaspiro[5.5]undecan-9-yl)acetamide]	6.30 to 7.00	> 7.00

Second part, the compound after the results:

pKi (human σ1 receptor)	pKi (human σ2/TMEM97 receptor)	Compound
6.00 to 6.30	> 7.00	CCn1nc(-c2cc(C)on2)c(C(=O)N[C@H]2CC[C@H](NCCC(C)(C)C)CC2)c1Cl [Example 200, 5-Chloro-N-((1r,4r)-4-((3,3-dimethylbutyl)amino)cyclohexyl)-1-ethyl-3-(5-methylisoxazol-3-yl)-1H-pyrazole-4-carboxamide]
6.30 to 7.00	6.30 to 7.00	CCn1nc(-c2cc(C)on2)c(C(=O)N[C@H]2CC[C@@H](NCCC(C)(C)C)CC2)c1Cl [Example 201, 5-Chloro-N-((1s,4s)-4-((3,3-dimethylbutyl)amino)cyclohexyl)-1-ethyl-3-(5-methylisoxazol-3-yl)-1H-pyrazole-4-carboxamide]
6.30 to 7.00	6.30 to 7.00	CCn1nc(-c2cc(C)on2)c(C(=O)NC2CCCN(CCC(C)(C)C)C2)c1Cl (stereo not drawn) [Example 202, 5-Chloro-N-(1-(3,3-dimethylbutyl)piperidin-3-yl)-1-ethyl-3-(5-methylisoxazol-3-yl)-1H-pyrazole-4-carboxamide]
6.30 to 7.00	> 7.00	CCn1nc(-c2cc(C)on2)c(C(=O)NCC2CCN(CCC(C)(C)C)CC2)c1Cl [Example 203, 5-Chloro-N-((1-(3,3-dimethylbutyl)piperidin-4-yl)methyl)-1-ethyl-3-(5-methylisoxazol-3-yl)-1H-pyrazole-4-carboxamide]
> 7.00	> 7.00	CCn1nc(-c2cc(C)on2)c(C(=O)NCC2CCCN(CCC(C)(C)C)C2)c1Cl (stereo not drawn) [Example 205, 5-Chloro-N-((1-(3,3-dimethylbutyl)piperidin-3-yl)methyl)-1-ethyl-3-(5-methylisoxazol-3-yl)-1H-pyrazole-4-carboxamide]
6.00 to 6.30	6.00 to 6.30	CCn1nc(-c2cc(C)on2)c(C(=O)NC2CCCCN(CCC(C)(C)C)C2)c1Cl (stereo not drawn) [Example 206, 5-Chloro-N-(1-(3,3-dimethylbutyl)azepan-3-yl)-1-ethyl-3-(5-methylisoxazol-3-yl)-1H-pyrazole-4-carboxamide]
